The source of these data is patent publication US20200291018A1, “TAM KINASE INHIBITORS” (SYROS PHARMACEUTICALS, INC., priority 2017, published 2020).

Structures are written as SMILES. Some results are limits rather than exact numbers.

Experiment [1] deals with T1, MERTK (Homo sapiens, UniProt Q12866).
T1 sequence (Q12866 21-999): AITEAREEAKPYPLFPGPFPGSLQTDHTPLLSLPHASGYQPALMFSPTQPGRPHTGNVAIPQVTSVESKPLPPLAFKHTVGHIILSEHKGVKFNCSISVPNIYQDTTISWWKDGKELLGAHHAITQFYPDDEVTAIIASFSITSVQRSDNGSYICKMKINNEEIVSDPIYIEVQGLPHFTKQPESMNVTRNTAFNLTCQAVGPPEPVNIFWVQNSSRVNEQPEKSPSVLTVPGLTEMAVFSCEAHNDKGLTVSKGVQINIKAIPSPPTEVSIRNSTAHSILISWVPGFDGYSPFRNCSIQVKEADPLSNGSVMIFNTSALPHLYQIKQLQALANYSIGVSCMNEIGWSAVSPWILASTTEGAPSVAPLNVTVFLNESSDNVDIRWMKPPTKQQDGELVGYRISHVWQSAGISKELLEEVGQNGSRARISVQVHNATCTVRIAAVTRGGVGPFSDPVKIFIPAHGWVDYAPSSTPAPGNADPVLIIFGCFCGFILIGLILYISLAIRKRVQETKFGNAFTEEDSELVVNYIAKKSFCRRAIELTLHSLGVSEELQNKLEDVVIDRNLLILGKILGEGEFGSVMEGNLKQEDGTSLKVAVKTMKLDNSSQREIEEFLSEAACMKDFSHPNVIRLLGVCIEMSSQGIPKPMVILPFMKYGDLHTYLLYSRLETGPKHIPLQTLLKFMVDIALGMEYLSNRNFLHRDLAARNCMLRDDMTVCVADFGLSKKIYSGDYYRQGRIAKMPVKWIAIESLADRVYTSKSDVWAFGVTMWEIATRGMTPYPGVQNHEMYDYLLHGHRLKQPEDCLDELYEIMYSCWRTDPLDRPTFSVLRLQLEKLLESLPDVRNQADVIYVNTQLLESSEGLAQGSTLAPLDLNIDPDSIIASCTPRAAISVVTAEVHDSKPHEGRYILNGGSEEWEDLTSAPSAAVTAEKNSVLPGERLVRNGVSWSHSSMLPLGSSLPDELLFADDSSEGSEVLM
The experiment is described as follows: TR-FRET kinase activity assay, MERTK. It counts as biochemical. The note with it: for IC50: TR-FRET activity assay, ATP at Km, 60 minutes, read-out: Mer IC50; for Mer/Flt3 ratio (FLT3 IC50/Mer IC50): ratio calculated as FLT3 IC50/Mer IC50. Summed up:
(§1)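 Each kinase phosphorylates a fluorescently labeled peptide on tyrosine in the presence of compound, with ATP at its Km, for 60 min at RT in HEPES pH 7.5 buffer with MgCl2, EGTA, Brij 35 and DTT. Product is detected by TR-FRET with a Europium-labeled phospho-specific antibody; IC50 values follow.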

Experiment [2] has as its target T2, TYRO3 (Homo sapiens, UniProt Q06418).
T2 sequence (Q06418 41-890): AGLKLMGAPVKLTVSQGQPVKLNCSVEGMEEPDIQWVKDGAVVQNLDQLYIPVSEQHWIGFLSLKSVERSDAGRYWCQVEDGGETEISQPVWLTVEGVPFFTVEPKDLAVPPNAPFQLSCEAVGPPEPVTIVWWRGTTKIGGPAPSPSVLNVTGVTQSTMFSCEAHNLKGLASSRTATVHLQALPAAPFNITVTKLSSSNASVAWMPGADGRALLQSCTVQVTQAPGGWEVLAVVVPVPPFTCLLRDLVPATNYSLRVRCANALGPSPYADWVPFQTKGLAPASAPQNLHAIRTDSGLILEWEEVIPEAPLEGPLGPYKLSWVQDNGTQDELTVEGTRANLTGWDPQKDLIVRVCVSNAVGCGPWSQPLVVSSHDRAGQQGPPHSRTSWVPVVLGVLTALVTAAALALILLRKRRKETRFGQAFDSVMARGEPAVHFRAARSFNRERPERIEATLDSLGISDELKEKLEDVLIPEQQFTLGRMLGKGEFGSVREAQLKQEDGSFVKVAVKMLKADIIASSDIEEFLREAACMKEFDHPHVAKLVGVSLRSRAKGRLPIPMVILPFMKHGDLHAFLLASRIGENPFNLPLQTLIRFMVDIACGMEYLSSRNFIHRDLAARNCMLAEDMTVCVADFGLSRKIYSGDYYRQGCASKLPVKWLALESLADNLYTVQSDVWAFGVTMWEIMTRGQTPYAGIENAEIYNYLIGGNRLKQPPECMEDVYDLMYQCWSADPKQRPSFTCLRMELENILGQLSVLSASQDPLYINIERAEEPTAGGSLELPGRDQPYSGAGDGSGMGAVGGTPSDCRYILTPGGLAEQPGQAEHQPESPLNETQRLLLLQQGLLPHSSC
The experiment is described as follows: TR-FRET kinase activity assay, TYRO3. It counts as biochemical. The note with it: ATP at Km, 60 minutes. Summed up:
as §1
In general terms: TR-FRET usually uses a lanthanide donor and a delayed reading to cut background.

As usually defined, the IC50 is the point on the concentration scale where inhibition reaches its midpoint. As for `COC[C@H](C)Nc1ncc2c(O[C@H]3C[C@@H](O)C3)ncc(-c3ccnnc3)c2n1` [Compound 425], in experiment [1], the IC50 is 100 to 1000 nM; the “Mer/Flt3 ratio (FLT3 IC50/Mer IC50)” value was “++ (a ratio of between 10 and 100)”. The compound further gave an IC50 in experiment [2] of 1000 to 10000 nM.

Consider `COC[C@H](C)Nc1ncc2c(O[C@H]3C[C@@H](O)C3)ncc([C@H]3CC[C@](C)(O)CC3)c2n1` [Compound 426], for which, in experiment [1], the IC50 was at most 100 nM and the “Mer/Flt3 ratio (FLT3 IC50/Mer IC50)” value is “+++ (a ratio of >100)”. Also, the IC50 in experiment [2] was at most 100 nM.

Turning to `COC[C@H](C)Nc1ncc2c(O[C@H]3C[C@@H](O)C3)ncc([C@H]3CC[C@@](C)(O)CC3)c2n1` [Compound 427], the IC50 in experiment [1] and in experiment [2] was at most 100 nM in each case. Also, the “Mer/Flt3 ratio (FLT3 IC50/Mer IC50)” value in experiment [1] is listed as “+++ (a ratio of >100)”.

On to `C[C@@H](CC(F)F)Nc1ncc2c(O[C@H]3C[C@@H](O)C3)ncc([C@H]3CC[C@H](O)CC3)c2n1` [Compound 428], for which the IC50 in experiment [1] and in experiment [2] was at most 100 nM each time. Moreover, the “Mer/Flt3 ratio (FLT3 IC50/Mer IC50)” value in experiment [1] is recorded as “+++ (a ratio of >100)”.

For `C[C@@H](CC(F)(F)F)Nc1ncc2c(O[C@H]3C[C@@](C)(O)C3)ncc([C@H]3CC[C@H](O)CC3)c2n1` [Compound 429], the IC50 in experiment [1] and in experiment [2] was at most 100 nM each time. Besides, in experiment [1], the “Mer/Flt3 ratio (FLT3 IC50/Mer IC50)” value was “+++ (a ratio of >100)”.
